Experimental data taken from patent US20230135127A1, “COMPOSITIONS AND METHODS FOR DISEASE TREATMENT AND PREVENTION BY PH MODIFIERS AND/OR CELL PROLIFERATION INHIBITORS” (priority 2021, published 2023).
Structures can show the parent of a compound that is named as a salt. Where two headings read alike, the source gives them in different places.

Legend:
[1] = test system: white bone marrow (WBM) cells; conditions: for Ki-67hi cells in bone marrow B lineage (CD19+) cells: i.p. x3, 1 day after third treatment, saline 5.59%; for Ki-67hi cells in non-B lineage cells of non-granulocyte WBM cells: i.p. x3, saline 11.5%
Description: (§1) For all examples, treatments of the mice were carried out either by i.t. (intra-tracheal) instillation or i.p. injection. For i.t. instillation, 60 μl of treatment solution of saline or saline plus 175 mM HCl or HOAc was instilled into the trachea of a mouse using a pipet tip. For i.p. injection, 200 μl of saline or saline plus 87.5 mM HCl, HOAc or NaOH was injected into the peritoneal cavity of a mouse using a 26 or 27G needle. At the time of the first treatment the body weights of the mice ranged about 19 to 30 g.
(§2) Cells were washed 3 times with PBS then stained with Zombie viability dyes at room temperature for 20 minutes. At the end of incubation, 10% volume of FBS was added to absorb excess Zombie dyes. After washes, the cells were stained with conjugated antibodies against surface antigens on ice. As specified in some experiments, the cells were subsequently stained with fluorochrome-conjugated Avidin. For Annexin V staining, cells were washed twice with plain PBS and once with Annexin V binging buffer (10 mM HEPES, pH7.4, 140 mM NaCl, 2.5 mM CaCl2)) after surface antigen staining, and incubated with fluorochrome-conjugated Annexin V in Annexin V binding buffer for 15 min at room temperature. The cells were washed twice in Annexin V binding buffer and resuspended in Annexin V binding buffer. 7-AAD was added to the cells before analyzed by flow cytometry. For Ki-67 and Foxp3 staining, lymphocytes (after Zombie dye and surface antigen staining) or tumor cells (without surface antigen staining) were fixed and permeabilized using Foxp3 staining buffer kit, then stained with PE-conjugated anti-mouse or human Ki-67 antibodies. (Biolegend, San Diego, Calif., USA). Stained and unstained cells were analyzed on Accuri C6 Flow Cytomer (Accuri Cytometers, Inc., Ann Arbor, Mich.), FACS Canto (BD Bioscience, San Jose, Calif., USA) and Attune™ cytometer (Invitrogen, Carlsbad, Calif.). Data analyses were carried out using FlowJo X.
Like lymph nodes, bone marrow is one of the most common sites for tumor metastasis. (106). In addition, primary tumors or tumor-like lesions can also occur in the bone. (107). […] In this example, C57BL/6 mice were treated with i.p. injection of saline, or saline plus HCl or HOAc every other day for 3 times. Bone marrow cells were extracted from both tibias 1 day after the third treatment for the study of B lineage cells, and for the studies of other cell types 3 days after the third i.p. treatment with saline or saline plus HOAc, and alternatively, mice received one i.t. injection of saline or saline plus HOAc, bone marrow was extracted from tibias the next day.

[2] = test system: lymphocytes, eosinophils, macrophages in BALF; neutrophils in blood
Description: as §2

[3] = test system: granulocytes and lymphocytes in the blood; conditions: RBC-depleted blood
[4] = test system: C57BL/6 mice immunized with MOG35-55 (EAE)
[5] = test system: lesions of allergic contact dermatitis
[6] = test system: white bone marrow (WBM) cells
Description: as §1, §2
To provide an example of this aspect of the present invention, C57BL/6 mice received i.p. treatments with saline or saline plus NaOH every other day for a total of 3 doses. Bone marrows were extracted from both tibias on day 1 or 3 after the final treatment.

[7] = test system: mice
[8] = about 5.25M in water, topical 4 times a day, day 1

## Cl [HCl, hydrochloric acid]
[1]
  Ki-67hi cells in bone marrow B lineage (CD19+) cells: 2.83%
  Ki-67hi cells in non-B lineage cells of non-granulocyte WBM cells: 6.34%

## CC(=O)O [HOAc, acetic acid]
[2]; i.t. after 3rd challenge, saline 0.71%
  apoptotic (Annexin V+7-AAD+) macrophages in BALF: 56.4%
[2]; i.t. after 3rd challenge, saline 2.87%
  apoptotic (Annexin V+7-AAD+) eosinophils in BALF: 95.2%
[2]; i.t. after 3rd challenge, saline 3.15%
  apoptotic (Annexin V+7-AAD+) lymphocytes in BALF: 85.3%
[2]; saline 7.61%
  apoptotic neutrophils (Ly6G high) in blood: 38.4%
[1]; i.p. treated, saline 4.21%
  Ki-67hi cells in bone marrow T (CD3+) cells: 2.46%
[1]; i.p. treated, saline 11.1%
  Ki-67hi HSC: no Ki-67^hi HSC were detected
[1]; i.p. treated, saline 72.3%
  Ki-67hi cells in erythroid (TER-119+) lineage cells: 46.9%
[1]
  Ki-67hi cells in bone marrow B lineage (CD19+) cells: 3.3%
  Ki-67hi cells in non-B lineage cells of non-granulocyte WBM cells: 5.11%
[1]; i.t. treated, one injection, saline 4.88%
  Ki-67hi cells in bone marrow T (CD3+) cells: 2.44%
[1]; i.t. treated, saline 5.56%
  Ki-67hi HSC: no Ki-67^hi HSC were detected
[1]; i.t. treated, saline 67.3%
  Ki-67hi cells in erythroid (TER-119+) lineage cells: 33.3%
[3]; saline 22.9%
  percentage of lymphocytes in blood: 13.6%
[3]; saline 32.6%
  percentage of granulocytes in blood: 1.1%
[4]; day 2 after initiation of i.p. treatment, saline 50%
  rate of disease onset (mice with EAE): 30%
[4]; reached 5 days after initiation, saline 80% on day 3
  maximum rate of disease onset: 60%
[5]; [8]
  rash in lesion 2: almost completely disappeared
  rashes in lesion 1: partially disappeared
[5]; by day 2 and day 3, treated day 0 and day 1
  rashes in both lesions: completely disappeared

## [Na+].[OH-] [NaOH, sodium hydroxide]
[6]; day 1, saline 4.85%
  Ki-67hi cells in B lineage cells: 24.8%
[6]; day 1, saline 11.2%
  Ki-67hi cells in non-B lineage cells: 35.3%
[6]; day 1, saline 34.7%
  Ki-67lo cells in B lineage cells: 61.6%
[6]; day 3, saline 0%
  Ki-67hi MPP: 2.54%
[6]; day 3, saline 0.69%
  percentage of T (CD3+) cells in WBM cells: 0.87%
[6]; day 3, saline 0.81%
  Sca-1+ c-kit+ stem cells in Lin- WBM cells: 1.74%
[6]; day 3, saline 2.86%
  Ki-67hi cells in T cells: 11.6%
[6]; day 3, saline 6.67%
  Ki-67hi HSC: 15.6%
[6]; day 3, saline 7.11%
  Ki-67neg TER-119+ cells: 6.72%
[6]; day 3, saline 14.6%
  percentage of TER-119+ cells in lymphoid and myeloid negative WBM cells: 17.5%
[6]; day 3, saline 18.4%
  percentage of CD11c+ TCR- cells in WBM cells: 64%
[6]; day 3, saline 20%
  Ki-67lo cells in T cells: 28.7%
[6]; day 3, saline 21.9%
  Ki-67lo MPP: 30.7%
[6]; day 3, saline 25.3%
  Ki-67lo TER-119+ cells: 16%
[6]; day 3, saline 33.7%
  Ki-67+ cells within the Ly6G+ population: 43.6%
[6]; day 3, saline 39.5%
  Ki-67+ cells in CD11c+ TCR- cells: 70.1%
[6]; day 3, saline 42.4%
  percentage of Ly6G+ cells in WBM cells: 57.7%
[6]; day 3, saline 67%
  Ki-67hi TER-119+ cells: 76.2%
[6]; i.p. x3, both tibias
  increase of average total number of WBM cells vs saline: 88%
[6]; one day after three i.p. treatments, saline about 11%
  percentage of CD19+ B lineage cells in non-granulocyte WBM cells: 17%
[6]; saline less than 14%
  average percentage of WBM cells in total bone marrow cells: over 29%
[7]
  tolerance of i.t. instillation: poorly tolerant
